Test results from ChEMBL document CHEMBL1137738, “Synthesis of a series of 8-(substituted-phenyl)xanthines and a study on the effects of substitution pattern of phenyl substituents on affinity for adenosine A(1) and A(2A) receptors” (Eur J Med Chem, 2009).

How the values were obtained:
Homo sapiens = species: Homo sapiens; test: Selectivity ratio of Ki for human cloned adenosine A1 receptor to Ki for human cloned adenosine A2A receptor
Adenosine receptor A1 = biological target: T1, Adenosine receptor A1 (Homo sapiens, UniProt P30542); test: biochemical
T1 sequence (P30542 whole entry): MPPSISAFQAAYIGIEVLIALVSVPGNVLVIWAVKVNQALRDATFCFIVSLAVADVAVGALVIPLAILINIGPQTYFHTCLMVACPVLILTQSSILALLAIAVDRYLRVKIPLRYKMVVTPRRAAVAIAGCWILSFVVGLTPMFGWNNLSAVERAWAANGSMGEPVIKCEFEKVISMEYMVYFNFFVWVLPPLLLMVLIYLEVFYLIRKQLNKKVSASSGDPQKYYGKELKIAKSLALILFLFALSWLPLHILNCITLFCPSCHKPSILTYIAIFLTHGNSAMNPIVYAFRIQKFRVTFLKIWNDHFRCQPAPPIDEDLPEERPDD
Description: Displacement of [3H]DPCPX from human cloned adenosine A1 receptor expressed in CHOK1 cells by scintillation counting

Adenosine receptor A2a = Adenosine receptor A2a (Homo sapiens, UniProt P29274); test: biochemical
Sequence of Adenosine receptor A2a (P29274 whole entry): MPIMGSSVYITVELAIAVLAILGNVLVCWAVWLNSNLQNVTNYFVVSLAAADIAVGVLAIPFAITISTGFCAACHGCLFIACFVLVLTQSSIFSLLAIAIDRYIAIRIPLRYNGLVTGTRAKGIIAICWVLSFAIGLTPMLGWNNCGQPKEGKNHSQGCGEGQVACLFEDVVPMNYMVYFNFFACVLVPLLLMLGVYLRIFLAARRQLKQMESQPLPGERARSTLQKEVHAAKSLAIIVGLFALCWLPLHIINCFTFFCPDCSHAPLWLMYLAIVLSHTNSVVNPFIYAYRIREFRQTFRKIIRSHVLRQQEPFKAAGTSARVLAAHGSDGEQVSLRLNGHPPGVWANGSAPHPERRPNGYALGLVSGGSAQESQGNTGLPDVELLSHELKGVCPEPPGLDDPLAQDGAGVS

[1] = Selectivity for adenosine A1 receptor over adenosine A2 receptor

Compound | Ratio Ki (Homo sapiens) | Ki (Adenosine receptor A1) [nM] | Ki (Adenosine receptor A2a) [nM] | fold change (FC) [1]
COc1cc(-c2nc3c([nH]2)c(=O)n(C)c(=O)n3C)ccc1OCCN1CCCC1 | 10 | 11200 | 1000 | –
CN(C)CCOc1cccc(-c2nc3c([nH]2)c(=O)n(C)c(=O)n3C)c1 | – | 800 | 400 | –
COc1ccc(-c2nc3c([nH]2)c(=O)n(C)c(=O)n3C)cc1OCCN1CCOCC1 | – | > 100000 | 100 | –
CCN(CC)CCOc1cc(-c2nc3c([nH]2)c(=O)n(C)c(=O)n3C)ccc1OC | 70 | 43000 | 600 | –
COc1cc(-c2nc3c([nH]2)c(=O)n(C)c(=O)n3C)ccc1OCCN(C)C | 100 | > 100000 | 600 | –
Cn1c(=O)c2[nH]c(-c3cccc(OCCN4CCCCC4)c3)nc2n(C)c1=O | – | 2100 | 800 | –
COc1cc(-c2nc3c([nH]2)c(=O)n(C)c(=O)n3C)ccc1OCCN1CCCCC1 | 100 | > 100000 | 700 | –
Cn1c(=O)c2[nH]c(-c3cccc(OCCN4CCCC4)c3)nc2n(C)c1=O | – | 1600 | 400 | –
COc1ccc(-c2nc3c([nH]2)c(=O)n(C)c(=O)n3C)cc1OCCN(C)C | 30 | 13500 | 400 | –
Cn1c(=O)c2[nH]c(-c3cccc(OCCN4CCOCC4)c3)nc2n(C)c1=O | – | 2100 | 1400 | –

Now from value to compound:

Ratio Ki (Homo sapiens) | Ki (Adenosine receptor A1) [nM] | Ki (Adenosine receptor A2a) [nM] | fold change (FC) [1] | Compound
– | > 100000 | 100000 | – | COc1cc(-c2nc3c([nH]2)c(=O)n(C)c(=O)n3C)ccc1OCCN1CCOCC1
140 | 14000 | 100 | – | CCN(CC)CCOc1cccc(-c2nc3c([nH]2)c(=O)n(C)c(=O)n3C)c1
100 | > 100000 | 1100 | – | CCN(CC)CCOc1ccc(-c2nc3c([nH]2)c(=O)n(C)c(=O)n3C)cc1OC
– | – | – | 90 | CCCn1c(=O)c2[nH]c(-c3ccc(OC)cc3O)nc2n(CCC)c1=O
38 | > 100000 | 2700 | – | COc1ccc(-c2nc3c([nH]2)c(=O)n(C)c(=O)n3C)cc1OCCN1CCCCC1
